Here are results for one molecule from article PMC10889512, “Pyrimidine Schiff Bases: Synthesis, Structural Characterization and Recent Studies on Biological Activities” (International Journal of Molecular Sciences, 2024).

For test [1], the system named is AGS. Description: Microscopic observations, Hoechst 33342 stain, AGS. Particulars: at IC50, 24, 48 and 72 h. Type of test: cell-based, human. Here is the method:
In order to obtain information about cells and nuclei morphology, fluorescence microscopy was used. Briefly, after the incubation of A172 and AGS with compound 4b (at three time periods, namely 24, 48, and 72 h) cells were stained with Hoechst 33342 dye, which binds to DNA. Phase-contrast observations were also performed. […] Also, the cell membrane should be intact with a visible halo around the cells. In necrotic cells, the nuclei edges tend to be less clearly defined, and Hoechst 33342 results in a decreased fluorescence signal. This effect can be seen in a1,2 (A172) and b1,2 (AGS). […] To visualize morphological changes which occurred in the treated cells, microscopic observations were conducted using Hoechst 33342 stain. It is a blue fluorescent stain which allows observations of nuclei in eukaryotic cells. Also observations in bright fields were performed. Cells were stained according to the manufacturer’s protocol. Briefly, cells were plated in 12-well plates at a density of 1 × 10^5 cells/well and were incubated for 24 h at 37 °C, 5% CO2 in a humidified atmosphere. Next, cells were treated with 4b at an IC50 and further incubated for 24, 48, and 72 h. For microscopic observations cells were collected, washed with PBS and stained for 15 min with 1 µg/mL Hoechst 33342 dye. […]

In test [2] the test system is A. baumannii 19606. Description: Antimicrobial activity assay, microdilution. Type of test: cell-based, Acinetobacter baumannii. As to conditions: concentration range from 0.5 µg/mL to 256 µg/mL. Here is the method: In vitro antimicrobial and antifungal activity was screened using microdilution and modified Richard’s medium. The assay was performed for compounds 4a, 4b, 4c, and 4d with seven reference microbial strains from ATTC (E. coli 25922, S. aureus 43300, K. pneumoniae 700603, A. baumannii 19606, P. aeruginosa 27853, E. faecalis 29212, and C. albicans 10231).
Seven reference strains from the ATCC collection (Escherichia coli 25922, Staphylococcus aureus 43300, Klebsiella pneumoniae 13883, Acinetobacter baumannii 19606, Pseudomonas aeruginosa 27853, Enterococcus faecalis 29212, and Candida albicans 10231) were used. The assay was performed according to a modified version of Richard et al.’s protocol and ISO standards 20776-1:2019 and 16256:2021 [78, 79]. Microdilution with spectrophotometric measurement was used to calculate MIC50 (minimal inhibitory concentration which decreased the microorganisms’ viability to 50%) values. Briefly, compounds were prepared 100× concentrated in DMSO, and during the whole experiment, they were diluted to 1× with TSB. Serial dilutions of tested compounds were made directly on plates at a concentration range of 0.5 to 256 µg/mL. Microorganisms were incubated for 24 h at 37 °C (bacteria) or 25 °C (yeast) on Petri dishes with TSA. The bacteria/yeast suspensions were prepared at a density 5 × 10^5 CFU/mL (for bacteria) or 0.5–2.5 × 10^5 CFU/mL (for yeast) with TSB. Also, appropriate controls were contained in the experiment: the positive control consisted of a specific strain in TSB, and the negative control was TSB alone. To ensure that used strains were not modified and were still responding to antibacterial/antifungal compounds established by EUCAST, additional tests were conducted with levofloxacin, gentamicin, and amphotericin B. Microplates were incubated on a shaker for 24 h at 37 ± 1 °C or 25 ± 1 °C for the bacteria and yeast strains, respectively. After the incubation, spectrophotometric measurement was performed at 580 nm. MIC50 was calculated by comparing the results obtained for experimental sets with positive controls. Next, 50 µL aliquots of 1% (m/v) TTC solution were added to each well. The plates were incubated on the shaker for 24 h at 37/25 °C. In living microbial cells, colourless TTC is converted into red formazan crystals, which allows for visual observation and MBC/MFC (minimal bactericidal/fungicidal concentration) value assessment.

The test system of test [3] is HeLa. The test is described as follows: Neutral red uptake assay on HeLa. It counts as cell-based. Particulars: Homo sapiens, 72 h treatment. Here is the method: Based on the results obtained for the RPTEC cell line, the following concentrations of 4b–d were chosen to be applied to neoplastic cell lines: 0.1, 1, 10, 25, 50, and 100 µM. A172, AGS, CaCo-2, HeLa, and HepG2 cancer cell lines were used to perform a neutral red uptake assay. The obtained results were compared with a negative control (cell lines incubated without tested compounds), and half-maximal inhibitory concentration (IC50) values were calculated. Cell lines were plated in 96-well plates at a density of 1 × 10^4 cells/well. After 24 h incubation, which allowed the cells to attach and start to proliferate, the culture media were replaced with 4a–d dissolved in the appropriate medium at concentrations of 1, 10, 50, 100, 150 and 200 µM. […] Negative (1% DMSO in medium) and positive (1 µM staurosporine) controls were also included. Plates were incubated at 37 °C for 24, 48, and 72 h before the neutral red uptake assay. The neutral red uptake assay was performed as described by Repetto et al.. Briefly, the medium from all wells was discarded, the attached cells were washed with 100 µL PBS, and then 100 µL of neutral red working solution in medium (40 µg/mL) was added to each well. The neutral red solution was incubated overnight in the same conditions as the cells and centrifuged before being added to the cells. The plates were incubated for at least 2 h at 37 °C, 5% CO2, in a humidified atmosphere. Next, the neutral red medium was removed, and the cells were washed with 100 µL PBS. A 100 µL quantity of destain solution consisting of 50% ethanol, 1% glacial acetic acid, and deionized water was added to each well. Plates were incubated for 30 min with constant shaking on a horizontal shaker at 37 °C. Absorption was measured at 540 nm excitation. The cells’ viability was calculated by comparing results from experimental sets with negative controls according to the formula: % viability=ODtest substance−ODblind/ODnegative control−ODblind×100

Consider `Cc1nc(-c2ccccc2)nc(Nc2ccc(F)cc2)c1C=Nc1cccc(Cl)c1` [compound 4b, 5-{[(3-chlorophenyl)imino]methyl}-N-(4-fluorophenyl)-6-methyl-2-phenylpyrimidin-4-amine], for which the “cell and nuclei morphology” value in test [1] is listed as “leads to necrosis”. The “MIC and MBC/MFC activity” value in test [2] is on record as “Neither MIC nor MBC/MFC activity was observed”. The IC50 – broadly, the concentration at which inhibition is half-maximal – in test [3] is more than 100 µM.
